Results published in ChEMBL document CHEMBL4507264, “Data for DCP probe BAY-7598” (2021).

What was measured:
[1] = test system: Epidermal growth factor receptor (Homo sapiens), P00533 [L861Q]; conditions: Compound concentration 1000.0 nM
[2] = molecular target: Dual specificity tyrosine-phosphorylation-regulated kinase 2 (Homo sapiens) (UniProt Q92630); conditions: Compound concentration 1000.0 nM
[3] = molecular target: Serine/threonine-protein kinase Nek10 (Homo sapiens) (UniProt Q6ZWH5); conditions: Compound concentration 1000.0 nM
[4] = molecular target: MAP kinase-activated protein kinase 5 (Homo sapiens) (UniProt Q8IW41); conditions: Compound concentration 1000.0 nM
[5] = test system: Receptor-type tyrosine-protein kinase FLT3 (Homo sapiens), P36888 [UNDEFINED MUTATION]; conditions: Compound concentration 1000.0 nM
Receptor-type tyrosine-protein kinase FLT3 (Homo sapiens), P36888 [UNDEFINED MUTATION], sequence (P36888 whole entry, looked up, stated change not applied): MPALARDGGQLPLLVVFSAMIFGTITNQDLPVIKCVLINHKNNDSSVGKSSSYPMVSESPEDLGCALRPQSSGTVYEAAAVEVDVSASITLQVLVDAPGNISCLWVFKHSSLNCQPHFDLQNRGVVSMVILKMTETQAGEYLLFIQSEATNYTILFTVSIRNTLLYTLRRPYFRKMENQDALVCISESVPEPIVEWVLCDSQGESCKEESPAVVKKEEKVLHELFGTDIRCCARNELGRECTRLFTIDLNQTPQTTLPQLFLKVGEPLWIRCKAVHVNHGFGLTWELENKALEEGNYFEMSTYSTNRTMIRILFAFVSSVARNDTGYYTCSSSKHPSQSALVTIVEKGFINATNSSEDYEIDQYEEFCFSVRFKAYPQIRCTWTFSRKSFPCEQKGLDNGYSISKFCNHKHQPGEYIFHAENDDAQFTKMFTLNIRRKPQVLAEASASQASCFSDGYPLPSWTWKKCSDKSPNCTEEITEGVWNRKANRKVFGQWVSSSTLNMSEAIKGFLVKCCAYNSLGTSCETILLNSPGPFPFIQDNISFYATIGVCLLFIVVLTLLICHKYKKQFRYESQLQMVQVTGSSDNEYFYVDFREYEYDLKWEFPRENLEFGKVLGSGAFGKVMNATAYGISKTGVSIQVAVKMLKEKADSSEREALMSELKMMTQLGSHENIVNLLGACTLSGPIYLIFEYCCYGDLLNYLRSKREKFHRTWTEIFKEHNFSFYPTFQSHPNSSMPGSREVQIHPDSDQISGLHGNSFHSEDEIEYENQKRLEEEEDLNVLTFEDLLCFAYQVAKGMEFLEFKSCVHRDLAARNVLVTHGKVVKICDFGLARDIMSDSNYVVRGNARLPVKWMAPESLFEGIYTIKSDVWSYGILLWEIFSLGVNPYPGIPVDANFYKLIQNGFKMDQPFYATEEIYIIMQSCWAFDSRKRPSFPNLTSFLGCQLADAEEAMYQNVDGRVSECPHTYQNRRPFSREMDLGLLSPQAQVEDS

[6] = test system: Leucine-rich repeat serine/threonine-protein kinase 2 (Homo sapiens), Q5S007 [G2019S]; conditions: Compound concentration 1000.0 nM
[7] = molecular target: Myosin light chain kinase family member 4 (Homo sapiens) (UniProt Q86YV6); conditions: Compound concentration 1000.0 nM
[8] = molecular target: Mitogen-activated protein kinase 3 (Homo sapiens) (UniProt P27361); conditions: Compound concentration 1000.0 nM
[9] = test system: Phosphatidylinositol 4,5-bisphosphate 3-kinase catalytic subunit alpha isoform (Homo sapiens), P42336 [I800L]; conditions: Compound concentration 1000.0 nM
[10] = molecular target: AP2-associated protein kinase 1 (Homo sapiens) (UniProt Q2M2I8); conditions: Compound concentration 1000.0 nM
[11] = molecular target: 5-hydroxytryptamine receptor 2C (Homo sapiens) (UniProt P28335); conditions: Compound concentration 10.0 uM
[12] = molecular target: MAP/microtubule affinity-regulating kinase 3 (Homo sapiens) (UniProt P27448); conditions: Compound concentration 1000.0 nM
MAP/microtubule affinity-regulating kinase 3 (Homo sapiens), sequence (P27448 whole entry, looked up): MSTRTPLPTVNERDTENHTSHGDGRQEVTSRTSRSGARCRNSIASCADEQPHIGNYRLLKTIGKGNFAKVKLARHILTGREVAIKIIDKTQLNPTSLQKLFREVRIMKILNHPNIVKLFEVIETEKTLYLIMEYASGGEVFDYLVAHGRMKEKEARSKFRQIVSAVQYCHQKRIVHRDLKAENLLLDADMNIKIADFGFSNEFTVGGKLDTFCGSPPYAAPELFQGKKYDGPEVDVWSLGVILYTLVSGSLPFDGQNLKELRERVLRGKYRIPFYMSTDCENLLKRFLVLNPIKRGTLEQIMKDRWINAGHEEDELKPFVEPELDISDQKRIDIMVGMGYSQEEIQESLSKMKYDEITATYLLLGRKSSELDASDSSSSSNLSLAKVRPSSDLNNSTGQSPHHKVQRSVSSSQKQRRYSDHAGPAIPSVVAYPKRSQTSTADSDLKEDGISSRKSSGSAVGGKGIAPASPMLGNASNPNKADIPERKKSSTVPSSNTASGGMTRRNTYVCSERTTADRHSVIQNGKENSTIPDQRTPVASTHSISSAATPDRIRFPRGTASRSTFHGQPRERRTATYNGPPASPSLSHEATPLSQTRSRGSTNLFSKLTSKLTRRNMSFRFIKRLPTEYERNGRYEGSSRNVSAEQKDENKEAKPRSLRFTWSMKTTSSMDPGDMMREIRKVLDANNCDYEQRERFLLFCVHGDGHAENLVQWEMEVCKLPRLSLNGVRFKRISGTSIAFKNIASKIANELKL

[13] = molecular target: Tyrosine-protein kinase Fer (Homo sapiens) (UniProt P16591); conditions: Compound concentration 1000.0 nM
[14] = molecular target: Eukaryotic translation initiation factor 2-alpha kinase 1 (Homo sapiens) (UniProt Q9BQI3); conditions: Compound concentration 1000.0 nM
[15] = molecular target: Atypical kinase COQ8A, mitochondrial (Homo sapiens) (UniProt Q8NI60); conditions: Compound concentration 1000.0 nM
[16] = molecular target: Insulin-like growth factor 1 receptor (Homo sapiens) (UniProt P08069); conditions: Compound concentration 1000.0 nM
[17] = test system: Tyrosine-protein kinase ABL1 (Homo sapiens), P00519 [H396P]; conditions: Compound concentration 1000.0 nM
[18] = molecular target: Mitogen-activated protein kinase kinase kinase kinase 1 (Homo sapiens) (UniProt Q92918); conditions: Compound concentration 1000.0 nM
[19] = test system: Tyrosine-protein kinase ABL1 (Homo sapiens), P00519 [F317L]; conditions: Compound concentration 1000.0 nM
[20] = molecular target: Serine/threonine-protein kinase RIO1 (Homo sapiens) (UniProt Q9BRS2); conditions: Compound concentration 1000.0 nM
Serine/threonine-protein kinase RIO1 (Homo sapiens), sequence (Q9BRS2 whole entry): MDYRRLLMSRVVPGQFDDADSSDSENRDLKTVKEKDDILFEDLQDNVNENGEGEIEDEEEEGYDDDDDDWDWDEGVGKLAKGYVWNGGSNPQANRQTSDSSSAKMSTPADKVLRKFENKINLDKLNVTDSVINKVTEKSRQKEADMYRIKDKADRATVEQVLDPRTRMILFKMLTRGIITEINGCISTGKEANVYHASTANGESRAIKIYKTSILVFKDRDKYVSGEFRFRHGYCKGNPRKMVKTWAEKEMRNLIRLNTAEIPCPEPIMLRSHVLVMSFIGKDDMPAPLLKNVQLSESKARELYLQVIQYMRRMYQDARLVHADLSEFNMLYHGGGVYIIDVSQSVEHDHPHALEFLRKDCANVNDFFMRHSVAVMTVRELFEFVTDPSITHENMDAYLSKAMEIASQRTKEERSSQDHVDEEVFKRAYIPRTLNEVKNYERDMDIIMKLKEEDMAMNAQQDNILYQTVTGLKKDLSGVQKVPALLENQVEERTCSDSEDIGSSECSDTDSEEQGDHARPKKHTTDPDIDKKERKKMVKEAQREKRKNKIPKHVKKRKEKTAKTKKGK

[21] = molecular target: Mitogen-activated protein kinase kinase kinase 12 (Homo sapiens) (UniProt Q12852); conditions: Compound concentration 1000.0 nM
[22] = molecular target: T1, 5-hydroxytryptamine receptor 1A (Homo sapiens) (UniProt P08908); conditions: Compound concentration 10.0 uM
T1 sequence (whole entry): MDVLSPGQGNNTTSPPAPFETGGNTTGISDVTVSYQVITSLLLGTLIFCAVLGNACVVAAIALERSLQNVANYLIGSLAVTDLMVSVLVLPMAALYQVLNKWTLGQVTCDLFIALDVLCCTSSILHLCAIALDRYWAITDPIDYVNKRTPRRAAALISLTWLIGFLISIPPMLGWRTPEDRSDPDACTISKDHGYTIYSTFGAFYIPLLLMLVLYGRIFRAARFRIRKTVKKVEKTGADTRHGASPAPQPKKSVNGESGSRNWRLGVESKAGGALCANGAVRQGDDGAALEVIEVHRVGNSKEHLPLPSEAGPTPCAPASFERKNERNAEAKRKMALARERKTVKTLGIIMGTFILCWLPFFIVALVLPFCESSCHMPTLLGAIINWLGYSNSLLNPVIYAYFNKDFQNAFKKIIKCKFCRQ

[23] = molecular target: Serine/threonine-protein kinase D1 (Homo sapiens) (UniProt Q15139); conditions: Compound concentration 1000.0 nM
[24] = molecular target: Serine/threonine-protein kinase haspin (Homo sapiens) (UniProt Q8TF76); conditions: Compound concentration 1000.0 nM
[25] = molecular target: Serine/threonine-protein kinase RIO3 (Homo sapiens) (UniProt O14730); conditions: Compound concentration 1000.0 nM
Serine/threonine-protein kinase RIO3 (Homo sapiens), sequence (O14730 whole entry): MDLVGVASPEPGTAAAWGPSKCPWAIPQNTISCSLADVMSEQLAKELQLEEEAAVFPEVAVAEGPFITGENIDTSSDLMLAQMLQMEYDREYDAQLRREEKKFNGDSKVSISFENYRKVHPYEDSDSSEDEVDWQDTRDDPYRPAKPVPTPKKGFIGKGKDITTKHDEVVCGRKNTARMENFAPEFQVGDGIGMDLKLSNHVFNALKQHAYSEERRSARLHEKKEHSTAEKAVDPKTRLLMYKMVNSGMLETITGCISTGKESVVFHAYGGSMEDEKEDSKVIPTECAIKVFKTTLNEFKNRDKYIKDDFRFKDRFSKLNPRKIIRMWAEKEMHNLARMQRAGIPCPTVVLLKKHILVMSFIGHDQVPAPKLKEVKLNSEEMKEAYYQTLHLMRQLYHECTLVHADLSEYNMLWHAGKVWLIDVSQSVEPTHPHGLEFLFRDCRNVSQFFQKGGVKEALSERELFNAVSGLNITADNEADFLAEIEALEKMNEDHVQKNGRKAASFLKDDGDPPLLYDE

[26] = molecular target: Calcium/calmodulin-dependent protein kinase type IV (Homo sapiens) (UniProt Q16566); conditions: Compound concentration 1000.0 nM
Calcium/calmodulin-dependent protein kinase type IV (Homo sapiens), sequence (Q16566 whole entry): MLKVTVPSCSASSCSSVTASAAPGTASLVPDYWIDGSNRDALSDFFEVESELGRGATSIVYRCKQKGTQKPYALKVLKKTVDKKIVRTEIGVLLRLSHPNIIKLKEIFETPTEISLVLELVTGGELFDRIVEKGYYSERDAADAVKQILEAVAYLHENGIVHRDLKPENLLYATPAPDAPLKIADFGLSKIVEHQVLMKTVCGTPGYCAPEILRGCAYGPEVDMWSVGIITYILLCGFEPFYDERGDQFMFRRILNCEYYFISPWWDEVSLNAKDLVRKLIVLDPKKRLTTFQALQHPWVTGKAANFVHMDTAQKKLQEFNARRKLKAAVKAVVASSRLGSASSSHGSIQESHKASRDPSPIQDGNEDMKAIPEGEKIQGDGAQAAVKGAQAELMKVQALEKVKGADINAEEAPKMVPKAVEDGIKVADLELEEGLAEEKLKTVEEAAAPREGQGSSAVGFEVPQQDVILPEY

[27] = molecular target: Interferon-induced, double-stranded RNA-activated protein kinase (Homo sapiens) (UniProt P19525); conditions: Compound concentration 1000.0 nM
[28] = molecular target: Mast/stem cell growth factor receptor Kit (Homo sapiens) (UniProt P10721); conditions: Compound concentration 1000.0 nM
[29] = molecular target: T2, D(4) dopamine receptor (Homo sapiens) (UniProt P21917); conditions: Compound concentration 10.0 uM
T2 sequence (whole entry): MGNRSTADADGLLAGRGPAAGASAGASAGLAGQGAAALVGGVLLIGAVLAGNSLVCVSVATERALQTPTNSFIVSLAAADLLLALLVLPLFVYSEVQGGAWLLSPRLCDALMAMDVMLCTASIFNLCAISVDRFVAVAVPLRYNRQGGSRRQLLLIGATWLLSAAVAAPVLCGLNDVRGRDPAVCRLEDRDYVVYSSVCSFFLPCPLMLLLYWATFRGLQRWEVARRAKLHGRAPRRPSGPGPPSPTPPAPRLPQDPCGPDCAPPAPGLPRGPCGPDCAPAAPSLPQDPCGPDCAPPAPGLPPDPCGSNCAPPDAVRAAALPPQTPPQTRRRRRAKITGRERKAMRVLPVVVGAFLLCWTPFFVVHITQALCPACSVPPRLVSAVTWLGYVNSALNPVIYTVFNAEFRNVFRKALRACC

[30] = molecular target: Calcium/calmodulin-dependent protein kinase type II subunit alpha (Homo sapiens) (UniProt Q9UQM7); conditions: Compound concentration 1000.0 nM
[31] = test system: Epidermal growth factor receptor (Homo sapiens), P00533 [UNDEFINED MUTATION]; conditions: Compound concentration 1000.0 nM
[32] = molecular target: Myosin-IIIa (Homo sapiens) (UniProt Q8NEV4); conditions: Compound concentration 1000.0 nM
Myosin-IIIa (Homo sapiens), sequence (Q8NEV4 whole entry): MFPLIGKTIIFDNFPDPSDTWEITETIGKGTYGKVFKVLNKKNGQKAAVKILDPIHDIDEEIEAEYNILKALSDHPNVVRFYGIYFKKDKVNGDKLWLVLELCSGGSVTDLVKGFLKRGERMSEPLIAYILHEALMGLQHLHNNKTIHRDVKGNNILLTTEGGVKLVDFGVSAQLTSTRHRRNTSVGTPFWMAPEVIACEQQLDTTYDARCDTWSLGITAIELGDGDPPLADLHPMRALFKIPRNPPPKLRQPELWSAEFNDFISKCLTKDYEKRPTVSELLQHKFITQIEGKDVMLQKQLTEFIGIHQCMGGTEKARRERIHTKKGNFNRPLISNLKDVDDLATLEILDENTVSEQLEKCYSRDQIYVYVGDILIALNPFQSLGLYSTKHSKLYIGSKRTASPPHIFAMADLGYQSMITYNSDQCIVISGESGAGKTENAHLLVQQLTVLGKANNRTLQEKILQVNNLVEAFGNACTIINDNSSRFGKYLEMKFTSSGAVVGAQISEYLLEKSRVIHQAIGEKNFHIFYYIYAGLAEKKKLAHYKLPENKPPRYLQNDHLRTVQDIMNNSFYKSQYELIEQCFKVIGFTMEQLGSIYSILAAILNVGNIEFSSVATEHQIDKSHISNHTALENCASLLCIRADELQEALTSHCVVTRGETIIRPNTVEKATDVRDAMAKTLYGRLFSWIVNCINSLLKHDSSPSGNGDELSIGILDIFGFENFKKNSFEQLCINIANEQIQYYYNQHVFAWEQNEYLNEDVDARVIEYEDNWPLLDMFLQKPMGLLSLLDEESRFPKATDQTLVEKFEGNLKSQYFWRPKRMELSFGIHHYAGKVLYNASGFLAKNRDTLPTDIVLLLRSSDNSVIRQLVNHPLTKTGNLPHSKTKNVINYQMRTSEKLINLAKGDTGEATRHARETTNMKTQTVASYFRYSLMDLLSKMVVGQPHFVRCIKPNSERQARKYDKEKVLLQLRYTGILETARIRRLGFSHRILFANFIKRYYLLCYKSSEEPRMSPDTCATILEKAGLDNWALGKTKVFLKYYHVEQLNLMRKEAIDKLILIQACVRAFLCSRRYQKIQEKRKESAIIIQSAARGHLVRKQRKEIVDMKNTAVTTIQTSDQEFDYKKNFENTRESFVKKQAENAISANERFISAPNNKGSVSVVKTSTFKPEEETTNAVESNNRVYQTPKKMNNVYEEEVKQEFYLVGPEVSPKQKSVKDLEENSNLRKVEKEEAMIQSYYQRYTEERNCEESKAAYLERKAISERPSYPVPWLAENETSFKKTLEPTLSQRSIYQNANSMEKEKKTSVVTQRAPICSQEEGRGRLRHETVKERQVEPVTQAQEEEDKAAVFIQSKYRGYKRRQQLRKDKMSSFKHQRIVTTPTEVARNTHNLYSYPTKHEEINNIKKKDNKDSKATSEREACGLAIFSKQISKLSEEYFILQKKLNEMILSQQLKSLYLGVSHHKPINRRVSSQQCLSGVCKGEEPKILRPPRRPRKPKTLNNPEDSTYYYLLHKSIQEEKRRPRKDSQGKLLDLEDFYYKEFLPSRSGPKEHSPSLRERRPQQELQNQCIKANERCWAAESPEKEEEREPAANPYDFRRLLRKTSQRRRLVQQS

O=C(O)[C@@H]1[C@@H](Cn2nnc3ccccc3c2=O)CC[C@H]1C(=O)c1ccc(OCCC2CCOCC2)cc1 [BAY-694] showed a residual activity [1] of 58%, a residual activity [2] of 90% and a residual activity [3] of 88%. It also gave a residual activity [4] of 76%, a residual activity [5] of 100% and a residual activity [6] of 100%. The residual activity [7] was 100%, the residual activity [8] was 100% and the residual activity [9] was 34%. It also gave a residual activity [10] of 100%, an inhibition [11] of 21% and a residual activity [12] of 100%. It also gave a residual activity [13] of 87%, a residual activity [14] of 100% and a residual activity [15] of 88%. For the same compound, the residual activity [16] was 100%, the residual activity [17] was 97% and the residual activity [18] was 91%. For the same compound, the residual activity [19] was 92%, the residual activity [20] was 100% and the residual activity [21] was 98%. The inhibition [22] was 7.62%, the residual activity [23] was 100% and the residual activity [24] was 88%. The residual activity [25] was 100%, the residual activity [26] was 75% and the residual activity [27] was 100%. The residual activity [28] was 100%, the inhibition [29] was 21.9% and the residual activity [30] was 100%. The residual activity [31] was 53% and the residual activity [32] was 93%.

Work on O=C(O)[C@H]1[C@H](Cn2nnc3ccccc3c2=O)CC[C@@H]1C(=O)c1ccc(OCCC2CCOCC2)cc1 [BAY-7598] yielded a residual activity [1] of 53%, a residual activity [2] of 93% and a residual activity [3] of 69%. For the same compound, the residual activity [4] was 99%, the residual activity [5] was 83% and the residual activity [6] was 100%. For the same compound, the residual activity [7] was 100%, the residual activity [8] was 94% and the residual activity [9] was 73%. The residual activity [10] was 78%, the inhibition [11] was 22.4% and the residual activity [12] was 100%. It also gave a residual activity [13] of 90%, a residual activity [14] of 78% and a residual activity [15] of 100%. It also gave a residual activity [16] of 100%, a residual activity [17] of 94% and a residual activity [18] of 87%. The residual activity [19] was 81%, the residual activity [20] was 100% and the residual activity [21] was 88%. It also gave an inhibition [22] of -0.18%, a residual activity [23] of 85% and a residual activity [24] of 84%. For the same compound, the residual activity [25] was 79%, the residual activity [26] was 78% and the residual activity [27] was 91%. The residual activity [28] was 65%, the inhibition [29] was 12.5% and the residual activity [30] was 100%. The residual activity [31] was 40% and the residual activity [32] was 100%.
